Data: PMC5218480 (PLoS ONE, 2017)

Test system: MV-4-11 cells
Assay: Gene expression microarray analysis (Affymetrix PrimeView) and GSEA
Format: cell-based, human
Parameters: RFU PODN (11730768_x_at) / Fold change /veh PODN (11730768_x_at) / RFU LINC00158 (11744669_a_at) / Fold change /veh LINC00158 (11744669_a_at) / RFU DUSP10 (11751237_a_at) / Fold change /veh DUSP10 (11751237_a_at) / RFU ID3 (11757404_x_at) / Fold change /veh ID3 (11757404_x_at) / RFU PLEKHG5 (11737974_s_at) / Fold change /veh PLEKHG5 (11737974_s_at) / RFU LRRC4B (11730491_at) / Fold change /veh LRRC4B (11730491_at) / RFU GIMAP4 (11747438_a_at) / Fold change /veh GIMAP4 (11747438_a_at) / RFU KRT8 (11758183_x_at) / Fold change /veh KRT8 (11758183_x_at) / RFU CNN1 (11734310_a_at) / Fold change /veh CNN1 (11734310_a_at) / RFU VPS37D (11726825_at) / Fold change /veh VPS37D (11726825_at) / RFU C10orf10 (11716522_x_at) / Fold change /veh C10orf10 (11716522_x_at) / RFU KIR2DL2 /// KIR2DL4 /// KIR2DL5A /// KIR2DL5B /// KIR2DS1 /// KIR2DS2 /// KIR2DS3 /// KIR2DS4 /// KIR3DL3 /// KIR3DL3 /// KIR3DS1 (11738374_at) / Fold change /veh KIR2DL2 /// KIR2DL4 /// KIR2DL5A /// KIR2DL5B /// KIR2DS1 /// KIR2DS2 /// KIR2DS3 /// KIR2DS4 /// KIR3DL3 /// KIR3DL3 /// KIR3DS1 (11738374_at) / RFU C1QL1 (11718748_at) / Fold change /veh C1QL1 (11718748_at) / RFU TMPRSS4 (11747572_a_at) / Fold change /veh TMPRSS4 (11747572_a_at) / RFU HAMP (11756126_x_at) / Fold change /veh HAMP (11756126_x_at) / RFU RNFT2 (11725882_a_at) / Fold change /veh RNFT2 (11725882_a_at) / RFU NR4A2 (11747474_a_at) / Fold change /veh NR4A2 (11747474_a_at) / RFU ABCC12 (11746883_a_at) / Fold change /veh ABCC12 (11746883_a_at) / RFU TMEM136 (11760407_x_at) / Fold change /veh TMEM136 (11760407_x_at) / RFU CLDN22 /// WWC2 (11732394_at) / Fold change /veh CLDN22 /// WWC2 (11732394_at) / RFU HLA-DPB1 (11760878_x_at) / Fold change /veh HLA-DPB1 (11760878_x_at) / RFU SPINT1 (11716480_a_at) / Fold change /veh SPINT1 (11716480_a_at) / RFU GAP43 (11754022_s_at) / Fold change /veh GAP43 (11754022_s_at) / RFU A4GNT (11735810_at) / Fold change /veh A4GNT (11735810_at) / RFU PRB3 (11715151_x_at) / Fold change /veh PRB3 (11715151_x_at) / RFU TUBB4B (11761932_at) / Fold change /veh TUBB4B (11761932_at) / RFU CAPN14 (11732068_a_at) / Fold change /veh CAPN14 (11732068_a_at) / RFU TMCC2 (11721928_a_at) / Fold change /veh TMCC2 (11721928_a_at) / RFU IRGQ (11745062_a_at) / Fold change /veh IRGQ (11745062_a_at) / RFU FAM174B (11720279_a_at) / Fold change /veh FAM174B (11720279_a_at) / RFU TMPRSS4 (11748680_a_at) / Fold change /veh TMPRSS4 (11748680_a_at) / RFU FAM212B (11763350_a_at) / Fold change /veh FAM212B (11763350_a_at) / RFU PLEKHG5 (11743358_a_at) / Fold change /veh PLEKHG5 (11743358_a_at) / RFU ZSCAN30 (11745921_a_at) / Fold change /veh ZSCAN30 (11745921_a_at) / RFU CMKLR1 (11741424_a_at) / Fold change /veh CMKLR1 (11741424_a_at) / RFU LOC101060620 /// MAPK8IP1 (11723275_at) / Fold change /veh LOC101060620 /// MAPK8IP1 (11723275_at) / RFU SPTSSB (11747773_x_at) / Fold change /veh SPTSSB (11747773_x_at) / RFU PRSS12 (11739890_at) / Fold change /veh PRSS12 (11739890_at) / RFU BIN1 (11741810_x_at) / Fold change /veh BIN1 (11741810_x_at) / RFU WNT11 (11732464_a_at) / Fold change /veh WNT11 (11732464_a_at) / RFU C10orf10 (11716521_a_at) / Fold change /veh C10orf10 (11716521_a_at) / RFU C5orf56 (11738089_at) / Fold change /veh C5orf56 (11738089_at) / RFU CYB561 (11721691_x_at) / Fold change /veh CYB561 (11721691_x_at) / RFU ANKRD19P (11752326_a_at) / Fold change /veh ANKRD19P (11752326_a_at) / RFU OR2T12 /// OR2T33 /// OR2T8 (11738714_s_at) / Fold change /veh OR2T12 /// OR2T33 /// OR2T8 (11738714_s_at) / RFU VCAN (11748164_a_at) / Fold change /veh VCAN (11748164_a_at) / RFU JSRP1 (11732532_at) / Fold change /veh JSRP1 (11732532_at) / RFU KRTAP10-11 (11738290_x_at) / Fold change /veh KRTAP10-11 (11738290_x_at) / RFU MYO3A (11730013_a_at) / Fold change /veh MYO3A (11730013_a_at) / RFU EBF3 (11725865_a_at) / Fold change /veh EBF3 (11725865_a_at) / RFU CAMK2N1 (11719241_x_at) / Fold change /veh CAMK2N1 (11719241_x_at) / RFU C5orf56 (11738088_a_at) / Fold change /veh C5orf56 (11738088_a_at) / RFU OLFML3 (11715873_a_at) / Fold change /veh OLFML3 (11715873_a_at) / RFU LOC100653217 /// NTM (11731650_a_at) / Fold change /veh LOC100653217 /// NTM (11731650_a_at) / RFU MAPK11 (11762145_a_at) / Fold change /veh MAPK11 (11762145_a_at) / RFU FIZ1 (11724087_x_at) / Fold change /veh FIZ1 (11724087_x_at) / RFU OASL (11726364_x_at) / Fold change /veh OASL (11726364_x_at) / RFU SOX15 (11748057_x_at) / Fold change /veh SOX15 (11748057_x_at) / RFU CD79A (11719716_a_at) / Fold change /veh CD79A (11719716_a_at) / RFU HIST1H1D (11736915_at) / Fold change /veh HIST1H1D (11736915_at) / RFU CASKIN2 (11723855_a_at) / Fold change /veh CASKIN2 (11723855_a_at) / RFU LOC730098 (11760151_x_at) / Fold change /veh LOC730098 (11760151_x_at) / RFU OR4N2 (11742367_at) / Fold change /veh OR4N2 (11742367_at) / RFU PRRT2 (11749266_a_at) / Fold change /veh PRRT2 (11749266_a_at) / RFU SNX32 (11753110_a_at) / Fold change /veh SNX32 (11753110_a_at) / RFU CDHR5 (11726645_a_at) / Fold change /veh CDHR5 (11726645_a_at) / RFU RCAN1 (11760418_a_at) / Fold change /veh RCAN1 (11760418_a_at) / RFU FAM167A (11723789_a_at) / Fold change /veh FAM167A (11723789_a_at) / RFU FAM26E (11764081_at) / Fold change /veh FAM26E (11764081_at) / RFU ISYNA1 (11749810_s_at) / Fold change /veh ISYNA1 (11749810_s_at) / RFU ACY1 (11761880_at) / Fold change /veh ACY1 (11761880_at) / RFU 11764098_at / Fold change /veh 11764098_at / RFU SAMD14 (11745864_x_at) / Fold change /veh SAMD14 (11745864_x_at) / RFU NPB (11741838_a_at) / Fold change /veh NPB (11741838_a_at) / RFU TMPRSS6 (11731388_a_at) / Fold change /veh TMPRSS6 (11731388_a_at) / RFU KRTAP10-2 (11738614_at) / Fold change /veh KRTAP10-2 (11738614_at) / RFU ARHGAP8 /// PRR5-ARHGAP8 (11727945_x_at) / Fold change /veh ARHGAP8 /// PRR5-ARHGAP8 (11727945_x_at) / RFU KRTAP5-7 /// NADSYN1 (11734609_at) / Fold change /veh KRTAP5-7 /// NADSYN1 (11734609_at) / RFU RASL12 (11751679_a_at) / Fold change /veh RASL12 (11751679_a_at) / RFU CDKN2B (11736163_a_at) / Fold change /veh CDKN2B (11736163_a_at) / RFU PRF1 (11729649_at) / Fold change /veh PRF1 (11729649_at) / RFU, ZNF638 /// ZNF638-IT1 / Fold change vs veh, ZNF638 /// ZNF638-IT1 / RFU, PANK3 / Fold change vs veh, PANK3 / RFU, SH3YL1 / Fold change vs veh, SH3YL1 / RFU, ZEB2 / Fold change vs veh, ZEB2 / RFU, NRIP1 / Fold change vs veh, NRIP1 / RFU, PTTG1IP / Fold change vs veh, PTTG1IP / RFU, CAPN2 / Fold change vs veh, CAPN2 / RFU, MED14 / Fold change vs veh, MED14 / RFU, SNORA58 / Fold change vs veh, SNORA58 / RFU, C1orf63 / Fold change vs veh, C1orf63 / RFU, LRRFIP1 / Fold change vs veh, LRRFIP1 / RFU, NDUFAF7 / Fold change vs veh, NDUFAF7 / RFU, SLC12A2 / Fold change vs veh, SLC12A2 / RFU, IBTK / Fold change vs veh, IBTK / RFU, ESF1 / Fold change vs veh, ESF1 / Fold change vs veh, TMEM50B / RFU, TAOK1 / Fold change vs veh, TAOK1 / RFU, ACBD3 / Fold change vs veh, ACBD3 / RFU, TMA16 / Fold change vs veh, TMA16 / RFU, RWDD3 / Fold change vs veh, RWDD3 / RFU, BCAT1 / Fold change vs veh, BCAT1 / RFU, EDEM3 / Fold change vs veh, EDEM3 / RFU, TMEM33 / Fold change vs veh, TMEM33 / RFU, WDR75 / Fold change vs veh, WDR75 / RFU, AHCTF1 / Fold change vs veh, AHCTF1 / RFU, TFRC / Fold change vs veh, TFRC / RFU, ZDHHC17 / Fold change vs veh, ZDHHC17 / RFU, NOM1 / Fold change vs veh, NOM1 / RFU, ARL8B / Fold change vs veh, ARL8B / RFU, ZBTB11 / Fold change vs veh, ZBTB11 / RFU, TAMM41 / Fold change vs veh, TAMM41 / RFU, KIAA1704 /// LOC100996395 / Fold change vs veh, KIAA1704 /// LOC100996395 / RFU, ING1 / Fold change vs veh, ING1 / RFU, TRMT61B / Fold change vs veh, TRMT61B / RFU, FUBP3 / Fold change vs veh, FUBP3 / RFU, TP53 / Fold change vs veh, TP53 / RFU, TNKS2 / Fold change vs veh, TNKS2 / RFU, ZFP14 / Fold change vs veh, ZFP14 / RFU, ACTR2 / Fold change vs veh, ACTR2 / RFU, PPP3R1 / Fold change vs veh, PPP3R1 / RFU, PIK3R1 / Fold change vs veh, PIK3R1 / RFU, HNRNPA1 / Fold change vs veh, HNRNPA1 / RFU, RNF170 / Fold change vs veh, RNF170 / RFU, ZNF28 / Fold change vs veh, ZNF28 / RFU, RNGTT / Fold change vs veh, RNGTT / RFU, OGT / Fold change vs veh, OGT / RFU, BRD1 / Fold change vs veh, BRD1 / RFU, MARS / Fold change vs veh, MARS / RFU, ZNF655 / Fold change vs veh, ZNF655 / RFU, FAHD1 / Fold change vs veh, FAHD1 / RFU, BDP1 / Fold change vs veh, BDP1 / RFU, LRRCC1 / Fold change vs veh, LRRCC1 / RFU, ARID1A / Fold change vs veh, ARID1A / RFU, ZNF146 / Fold change vs veh, ZNF146 / RFU, ZNF330 / Fold change vs veh, ZNF330 / RFU, GPN3 / Fold change vs veh, GPN3 / RFU, C9orf123 / Fold change vs veh, C9orf123 / RFU, N4BP2L2 / Fold change vs veh, N4BP2L2 / RFU, ARFIP1 / Fold change vs veh, ARFIP1 / RFU, FAM179B / Fold change vs veh, FAM179B / RFU, BCL10 / Fold change vs veh, BCL10 / RFU, UHRF1BP1L / Fold change vs veh, UHRF1BP1L / RFU, BET1 / Fold change vs veh, BET1 / RFU, CNOT2 / Fold change vs veh, CNOT2 / RFU, ZNF268 / Fold change vs veh, ZNF268 / Fold change vs veh, ZNF507 / RFU, DGCR2 / Fold change vs veh, DGCR2 / RFU, WDSUB1 / Fold change vs veh, WDSUB1 / Fold change vs veh, HSP90B1 /// MIR3652 / RFU, ADSS / Fold change vs veh, ADSS / RFU, GK / Fold change vs veh, GK / RFU, ZNF148 / Fold change vs veh, ZNF148 / RFU, TAF9 / Fold change vs veh, TAF9 / RFU, SLC1A5 / Fold change vs veh, SLC1A5 / RFU, SLMO2 / Fold change vs veh, SLMO2 / RFU, ABCC4 / Fold change vs veh, ABCC4 / RFU, LOC101060439 /// RAP1B / Fold change vs veh, LOC101060439 /// RAP1B / RFU, RFX7 / Fold change vs veh, RFX7 / RFU, GTPBP10 / Fold change vs veh, GTPBP10 / RFU, CNEP1R1 / Fold change vs veh, CNEP1R1 / RFU, BIVM-ERCC5 /// ERCC5 / Fold change vs veh, BIVM-ERCC5 /// ERCC5 / RFU, ILF3 / Fold change vs veh, ILF3 / RFU 11762660_at / Fold change /veh 11762660_at / RFU VCAN (11757783_s_at) / Fold change /veh VCAN (11757783_s_at) / RFU DDX43 (11728927_at) / Fold change /veh DDX43 (11728927_at) / RFU KRT8 (11758188_x_at) / Fold change /veh KRT8 (11758188_x_at) / RFU NKD1 (11759106_at) / Fold change /veh NKD1 (11759106_at) / RFU SRD5A1 (11742802_a_at) / Fold change /veh SRD5A1 (11742802_a_at) / RFU TPSAB1 /// TPSB2 (11721975_s_at) / Fold change /veh TPSAB1 /// TPSB2 (11721975_s_at) / RFU GSTM3 (11746129_a_at) / Fold change /veh GSTM3 (11746129_a_at) / RFU IL23R (11737362_x_at) / Fold change /veh IL23R (11737362_x_at) / RFU TMEM51 (11727254_a_at) / Fold change /veh TMEM51 (11727254_a_at) / RFU PIWIL2 (11732686_x_at) / Fold change /veh PIWIL2 (11732686_x_at) / RFU ORM1 (11744905_x_at) / Fold change /veh ORM1 (11744905_x_at) / RFU CCDC152 (11743942_at) / Fold change /veh CCDC152 (11743942_at) / RFU ECM1 (11717891_a_at) / Fold change /veh ECM1 (11717891_a_at) / RFU IL23R (11748794_a_at) / Fold change /veh IL23R (11748794_a_at) / RFU TNFAIP8L3 (11732012_x_at) / Fold change /veh TNFAIP8L3 (11732012_x_at) / RFU MBOAT4 (11741988_at) / Fold change /veh MBOAT4 (11741988_at) / RFU 11764193_at / Fold change /veh 11764193_at / RFU TMEM53 (11763286_at) / Fold change /veh TMEM53 (11763286_at) / RFU MAGEB2 (11727129_at) / Fold change /veh MAGEB2 (11727129_at) / RFU TMEM200A (11744735_a_at) / Fold change /veh TMEM200A (11744735_a_at) / RFU CCDC152 (11751479_a_at) / Fold change /veh CCDC152 (11751479_a_at) / RFU FAM211A (11726209_a_at) / Fold change /veh FAM211A (11726209_a_at) / RFU RGS16 (11746705_a_at) / Fold change /veh RGS16 (11746705_a_at) / RFU VCAN (11755009_s_at) / Fold change /veh VCAN (11755009_s_at) / RFU RHOB (11743442_s_at) / Fold change /veh RHOB (11743442_s_at) / RFU RGS16 (11720943_a_at) / Fold change /veh RGS16 (11720943_a_at) / RFU RGS16 (11720944_at) / Fold change /veh RGS16 (11720944_at) / RFU, VPS4B / Fold change vs veh, VPS4B / RFU, CREB1 / Fold change vs veh, CREB1 / RFU, DNAJC13 / Fold change vs veh, DNAJC13 / RFU, GNAQ / Fold change vs veh, GNAQ / RFU, CDK5R1 / Fold change vs veh, CDK5R1 / RFU, ZRANB3 / Fold change vs veh, ZRANB3 / RFU, CUL4A / Fold change vs veh, CUL4A / RFU, CCNY / Fold change vs veh, CCNY / RFU, UFL1 / Fold change vs veh, UFL1 / RFU, COG3 / Fold change vs veh, COG3 / RFU, DIAPH2 / Fold change vs veh, DIAPH2 / RFU, SKA2 / Fold change vs veh, SKA2 / RFU, AFF3 / Fold change vs veh, AFF3 / RFU, LMF1 / Fold change vs veh, LMF1 / RFU, IPO11 / Fold change vs veh, IPO11 / RFU, DFFB / Fold change vs veh, DFFB / RFU, FOXP1 / Fold change vs veh, FOXP1 / RFU, CARD8 / Fold change vs veh, CARD8 / RFU, STRN3 / Fold change vs veh, STRN3 / RFU, ADK / Fold change vs veh, ADK / RFU, RASSF2 / Fold change vs veh, RASSF2 / RFU, WIPF1 / Fold change vs veh, WIPF1 / RFU, LARP1B / Fold change vs veh, LARP1B / RFU, RASA1 / Fold change vs veh, RASA1 / RFU, RB1 / Fold change vs veh, RB1 / RFU, PPFIA1 / Fold change vs veh, PPFIA1 / RFU, MAT2A / Fold change vs veh, MAT2A / RFU, CCT5 / Fold change vs veh, CCT5 / RFU, WDR92 / Fold change vs veh, WDR92 / RFU, CUX1 / Fold change vs veh, CUX1 / RFU, TTC7A / Fold change vs veh, TTC7A / RFU, TMEM135 / Fold change vs veh, TMEM135 / RFU, DEPTOR / Fold change vs veh, DEPTOR / RFU, CPM / Fold change vs veh, CPM / RFU, DNAJB6 / Fold change vs veh, DNAJB6 / RFU, CACNA2D3 / Fold change vs veh, CACNA2D3 / RFU, DTX4 / Fold change vs veh, DTX4 / RFU, TFCP2 / Fold change vs veh, TFCP2 / RFU, GMCL1 /// GMCL1P1 / Fold change vs veh, GMCL1 /// GMCL1P1 / RFU, AEBP2 / Fold change vs veh, AEBP2 / RFU, SNHG1 /// SNORD22 /// SNORD25 /// SNORD26 /// SNORD27 /// SNORD28 /// SNORD29 /// SNORD31 / Fold change vs veh, SNHG1 /// SNORD22 /// SNORD25 /// SNORD26 /// SNORD27 /// SNORD28 /// SNORD29 /// SNORD31 / Fold change (Aza/veh), C12orf56 (ProbeSet 11735607_a_at) / Fold change (ACY-1035/veh), C12orf56 (ProbeSet 11735607_a_at) / Fold change (Aza/veh), FGFR1OP (ProbeSet 11751329_s_at) / Fold change (ACY-1035/veh), FGFR1OP (ProbeSet 11751329_s_at) / Fold change (Aza/veh), VPS36 (ProbeSet 11739960_a_at) / Fold change (ACY-1035/veh), VPS36 (ProbeSet 11739960_a_at) / RFU SYPL1 (11715823_x_at) / Fold change /veh SYPL1 (11715823_x_at) / RFU IGFBP7 (11715501_s_at) / Fold change /veh IGFBP7 (11715501_s_at) / RFU REEP3 (11722064_at) / Fold change /veh REEP3 (11722064_at) / RFU IGLL1 (11728026_x_at) / Fold change /veh IGLL1 (11728026_x_at): dose or concentration left out as unconfirmed
Conditions: ProbeSet 11720270_a_at; LIST B

Nc1ccc(-c2cccs2)cc1NC(=O)c1ccc2c(c1)cc(C1CC1)n2CCN1CCOCC1 [ACY-1035]
Fold change vs veh, IBTK: 0.91
